Source: patent US6737383B1, “Herbicidal oxadiazolidines” (priority 1999, dated 2004)

Key:
duck salad = experiment: Test B flood test duck salad; assay type: in vivo, Heteranthera limosa
Outline: (§1)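 Plants were grown to the 2-leaf stage before treatment with test chemical, then held in a greenhouse for twelve to sixteen days. Injury was visually rated against untreated controls on a 0–10 scale, where 0 is no effect and 10 is complete control.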

pigweed = experiment: Test B pre/postemergence pigweed; assay type: in vivo, Amaranthus retroflexus
Outline: (§2)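 Herbicidal effect was estimated by eye on a ten-point control scale after plants spent twelve to sixteen days in a greenhouse following soil or foliar treatment. Foliar sprays targeted plants at one to four leaves; all doses were formulated in a non-phytotoxic solvent with surfactant.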

wheat = experiment: Test B pre/postemergence wheat; assay type: in vivo, Triticum aestivum
Outline: as §2

velvetleaf = experiment: Test B pre/postemergence velvetleaf; assay type: in vivo, Abutilon theophrasti
Outline: as §2

bamyardgrass = experiment: Test B flood test barnyardgrass; assay type: in vivo, Echinochloa crus-galli
Outline: as §1

cocklebur = experiment: Test B pre/postemergence cocklebur; assay type: in vivo, Xanthium strumarium
Outline: as §2

purple nutsedge = experiment: Test B pre/postemergence purple nutsedge; assay type: in vivo, Cyperus rotundus
Outline: as §2

surinam grass = experiment: Test B pre/postemergence surinam grass; assay type: in vivo, Brachiaria decumbens
Outline: as §2

smallflower flatsedge = experiment: Test B flood test smallflower flatsedge; assay type: in vivo, Cyperus difformis
Outline: as §1

bedstraw = experiment: Test B pre/postemergence bedstraw; assay type: in vivo, Galium aparine; conditions: Postemergence
Outline: as §2

soybean = experiment: Test B pre/postemergence soybean; assay type: in vivo, Glycine max
Outline: as §2

morningglory = experiment: Test B pre/postemergence morningglory; assay type: in vivo, Ipomoea hederacea
Outline: as §2

rape = experiment: Test B pre/postemergence rape; assay type: in vivo, Brassica napus
Outline: as §2

wild oat = experiment: Test B pre/postemergence wild oat; assay type: in vivo, Avena fatua
Outline: as §2

blackgrass = experiment: Test B pre/postemergence blackgrass; assay type: in vivo, Alopecurus myosuroides
Outline: as §2

giant foxtail = experiment: Test B pre/postemergence giant foxtail; assay type: in vivo, Setaria faberii
Outline: as §2

[1] = Rate 62 g/ha, flood test species, Pre-emergence, visual evaluation after twelve to sixteen days
[2] = Rate 125 g/ha, under heading Pre-emergence, flood test species, visual evaluation after twelve to sixteen days
[3] = Rate 250 g/ha, Pre-emergence (flood test species), scale 0 to 10, 0 is no effect, 10 is complete control
[4] = Rate 500 g/ha, Pre-emergence section of Table B, 0 to 10 scale (0 no effect, 10 complete control)
[5] = Postemergence, Rate 125 g/ha, scale 0 to 10, 0 is no effect, 10 is complete control
[6] = Postemergence, Rate 500 g/ha, scale 0 to 10, 0 is no effect, 10 is complete control
[7] = Preemergence, Rate 62 g/ha, scale of 0 to 10 where 0 is no effect and 10 is complete control
[8] = Preemergence, Rate 125 g/ha, scale 0 to 10, 0 is no effect, 10 is complete control
[9] = Preemergence, Rate 250 g/ha, scale 0 to 10, 0 is no effect, 10 is complete control
[10] = Preemergence, Rate 500 g/ha, scale 0 to 10, 0 is no effect, 10 is complete control
[11] = Rate 62 g/ha, Postemergence, scale 0 to 10, 0 no effect, 10 complete control
[12] = Postemergence, Rate 250 g/ha, scale 0 to 10

CC(C)C(=O)Cn1c(=O)on(C(=O)N(c2ccc(F)cc2F)C(C)C)c1=O [Compound 486]
4: Bedstraw plant response rating (bedstraw; Rate 250 g/ha, scale 0 to 10) | Soybean plant response rating (soybean; [5]) | Plant response rating, Soybean (soybean; [6]) | Soybean plant response rating (soybean; [11])
6: Plant response rating, Redroot pigweed (pigweed; [7]) | Plant response rating, Velvetleaf (velvetleaf; [6]) | B. signalgrass plant response rating (surinam grass; [9]) | Rape plant response rating (rape; [9]) | Rape plant response rating (rape; [10]) | Blackgrass plant response rating (blackgrass; [5])
7: Plant response rating, Blackgrass (blackgrass; [7]) | Giant foxtail plant response rating (giant foxtail; [5])
0: Plant response rating, Ducksalad (0 to 10 scale, 0 is no effect, 10 is complete control) (duck salad; [1]) | Ducksalad plant response rating (0 to 10 scale, 0 is no effect, 10 is complete control) (duck salad; [2]) | Ducksalad plant response rating (duck salad; [3]) | Ducksalad plant response rating (duck salad; [4]) | Redroot pigweed plant response rating (pigweed; [5]) | Redroot pigweed plant response rating (pigweed; [11]) | Wheat plant response rating (wheat; [5]) | Plant response rating, Wheat (wheat; [7]) | Wheat plant response rating (wheat; [8]) | Wheat plant response rating (wheat; [9]) | Wheat plant response rating (wheat; [10]) | Wheat plant response rating (wheat; [11]) | Velvetleaf plant response rating (velvetleaf; [5]) | Plant response rating, Velvetleaf (velvetleaf; [7]) | Velvetleaf plant response rating (velvetleaf; [8]) | Velvetleaf plant response rating (velvetleaf; [9]) | Velvetleaf plant response rating (velvetleaf; [10]) | Velvetleaf plant response rating (velvetleaf; [11]) | Plant response rating, Barnyardgrass (0 to 10 scale, 0 is no effect, 10 is complete control) (bamyardgrass; [1]) | Barnyardgrass plant response rating (0 to 10 scale, 0 is no effect, 10 is complete control) (bamyardgrass; [2]) | Barnyardgrass plant response rating (bamyardgrass; [3]) | Barnyardgrass plant response rating (bamyardgrass; [4]) | Cocklebur plant response rating (cocklebur; [5]) | Cocklebur plant response rating (cocklebur; [12]) | Plant response rating, Cocklebur (cocklebur; [6]) | Plant response rating, Cocklebur (cocklebur; [7]) | Cocklebur plant response rating (cocklebur; [8]) | Cocklebur plant response rating (cocklebur; [10]) | Cocklebur plant response rating (cocklebur; [11]) | Nutsedge plant response rating (purple nutsedge; [5]) | Plant response rating, Nutsedge (purple nutsedge; [6]) | Plant response rating, Nutsedge (purple nutsedge; [7]) | Nutsedge plant response rating (purple nutsedge; [8]) | Nutsedge plant response rating (purple nutsedge; [9]) | Nutsedge plant response rating (purple nutsedge; [10]) | Nutsedge plant response rating (purple nutsedge; [11]) | B. signalgrass plant response rating (surinam grass; [5]) | B. signalgrass plant response rating (surinam grass; [11]) | Plant response rating, S. Flatsedge (0 to 10 scale, 0 is no effect, 10 is complete control) (smallflower flatsedge; [1]) | S. Flatsedge plant response rating (0 to 10 scale, 0 is no effect, 10 is complete control) (smallflower flatsedge; [2]) | S. Flatsedge plant response rating (smallflower flatsedge; [3]) | S. Flatsedge plant response rating (smallflower flatsedge; [4]) | Bedstraw plant response rating (bedstraw; Rate 62 g/ha, scale 0 to 10, 0 no effect, 10 complete control) | Plant response rating, Soybean (soybean; [7]) | Soybean plant response rating (soybean; [8]) | Soybean plant response rating (soybean; [9]) | Plant response rating, Morningglory (morningglory; [7]) | Morningglory plant response rating (morningglory; [8]) | Morningglory plant response rating (morningglory; [9]) | Morningglory plant response rating (morningglory; [10]) | Rape plant response rating (rape; [5]) | Rape plant response rating (rape; [11]) | Wild oats plant response rating (wild oat; [5]) | Plant response rating, Wild oats (wild oat; [7]) | Wild oats plant response rating (wild oat; [11]) | Blackgrass plant response rating (blackgrass; [11])
9: Redroot pigweed plant response rating (pigweed; [9]) | Redroot pigweed plant response rating (pigweed; [10]) | Blackgrass plant response rating (blackgrass; [8]) | Plant response rating, Giant foxtail (giant foxtail; [6]) | Plant response rating, Giant foxtail (giant foxtail; [7])
10: Blackgrass plant response rating (blackgrass; [9]) | Blackgrass plant response rating (blackgrass; [10]) | Giant foxtail plant response rating (giant foxtail; [8]) | Giant foxtail plant response rating (giant foxtail; [9]) | Giant foxtail plant response rating (giant foxtail; [10])
2: Plant response rating, Redroot pigweed (pigweed; [6]) | Soybean plant response rating (soybean; [10]) | Plant response rating, Morningglory (morningglory; [6]) | Plant response rating, Rape (rape; [7]) | Rape plant response rating (rape; [8]) | Giant foxtail plant response rating (giant foxtail; [11])
3: Plant response rating, Wild oats (wild oat; [6]) | Wild oats plant response rating (wild oat; [8])
8: Redroot pigweed plant response rating (pigweed; [8]) | B. signalgrass plant response rating (surinam grass; [10]) | Plant response rating, Bedstraw (bedstraw; Rate 500 g/ha, scale 0 to 10, 0 is no effect, 10 is complete control) | Wild oats plant response rating (wild oat; [10]) | Blackgrass plant response rating (blackgrass; [12]) | Plant response rating, Blackgrass (blackgrass; [6])
1: B. signalgrass plant response rating (surinam grass; Postemergence, Rate 250 g/ha, scale 0 to 10, 0 no effect, 10 complete control) | Bedstraw plant response rating (bedstraw; Rate 125 g/ha, scale 0 to 10, 0 is no effect, 10 is complete control) | Morningglory plant response rating (morningglory; [5]) | Morningglory plant response rating (morningglory; [11]) | Plant response rating, Rape (rape; [6])
5: Plant response rating, Wheat (wheat; [6]) | Plant response rating, B. signalgrass (surinam grass; [6]) | Plant response rating, B. signalgrass (surinam grass; [7]) | B. signalgrass plant response rating (surinam grass; [8]) | Wild oats plant response rating (wild oat; [9])
